The target of the experiment is T1, EP1 receptor (Mus musculus, UniProt P35375).
T1 sequence (P35375 1-405): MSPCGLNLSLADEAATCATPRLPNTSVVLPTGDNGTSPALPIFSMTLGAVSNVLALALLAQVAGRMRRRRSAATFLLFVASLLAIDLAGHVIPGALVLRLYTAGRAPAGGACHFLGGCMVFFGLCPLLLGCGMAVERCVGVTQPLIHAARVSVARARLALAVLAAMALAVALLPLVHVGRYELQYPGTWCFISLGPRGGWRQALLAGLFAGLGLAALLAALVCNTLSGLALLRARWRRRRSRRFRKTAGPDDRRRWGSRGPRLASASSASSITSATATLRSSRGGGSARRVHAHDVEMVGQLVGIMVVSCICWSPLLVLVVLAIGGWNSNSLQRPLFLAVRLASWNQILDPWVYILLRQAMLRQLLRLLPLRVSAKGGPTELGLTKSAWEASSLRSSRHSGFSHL
The experiment in a line: Fura-2 intracellular Ca2+ dose-response in EP1-HEK cells. Type of experiment: cell-based.

For the compound `CCCCC[C@H](O)/C=C/[C@H]1[C@H](O)CC(=O)[C@@H]1C/C=C\CCCC(=O)O` [PGE2], a half-maximal effect (EC50) was put at 12.8 nM.
